Source: patent US20220053762A1, “HERBICIDAL COMPOSITIONS” (Bayer Aktiengesellschaft, priority 2018, published 2022)

System: harmful plant species
Assay: Specific trial examples: binary compositions applied by the post-emergence method, synergistic effect according to Colby (Tables 3.1-3.2)
Format: in vivo
Protocol: When the observed efficacies already exceed the formal sum total of the values of the tests with individual applications, they also exceed the expected value according to Colby, which is calculated using the formula below and is likewise regarded as an indication of synergism (cf. S. R. Colby; in Weeds 15 (1967) p. 20 to 22):
Seeds or rhizome pieces of mono- and dicotyledonous weeds are placed in sandy loam in pots, covered with soil and grown in a greenhouse under good growth conditions (temperature, air humidity, water supply). Three weeks after sowing, the test plants are treated at the three-leaf stage with the compositions according to the invention. The compositions according to the invention formulated as spray powders or as emulsion concentrates are sprayed onto the green plant parts in various dosages with an application rate of 300 to 800 l/ha of water (equivalent).
The sum total of the effects of the individual applications is reported under E^A; Expected values according to Colby are each reported under E^C.
The rating period is reported in days after application (DAT).

C=C[C@]1(C(=O)N[C@H]2CO[C@@H](C(=O)NS(=O)(=O)C(F)(F)F)C2)CC(c2cc(F)cc(F)c2)=NO1 (relative stereo) [Compound A1, (5S)-3-(3,5-difluorophenyl)-N-[rel-(3R,5R)-5-(trifluoromethylsulfonylcarbamoyl)tetrahydrofuran-3-yl]-5-vinyl-4H-isoxazole-5-carboxamide]
70%: Herbicidal action 28 DAT against Polygonum convolvulus (15 g a.i./ha) | Herbicidal action 28 DAT [%] against Lamium purpureum (post-emergence, single active compound, g a.i./ha: r204 45, r205 50)
20%: Herbicidal action 28 DAT against Centaurea cyanus (5 g a.i./ha) | Herbicidal action 28 DAT against Lamium purpureum (5 g a.i./ha) | Herbicidal action 28 DAT against Viola tricolor (15 g a.i./ha)
30%: Herbicidal action 28 DAT against Centaurea cyanus (15 g a.i./ha) | Herbicidal action 28 DAT against Galium aparine (15 g a.i./ha) | Herbicidal action 28 DAT [%] against Digitaria sanguinalis (post-emergence, single active compound (Glyphosate series), g a.i./ha: r765 50, r767 15)
15%: Herbicidal action against Echinochloa crus-galli (28 DAT, g a.i./ha: r22 270, r23 90, r24 30, r25 5, r26 1.67) | Herbicidal action 28 DAT [%] against Echinochloa crus-galli (post-emergence, single active compound, g a.i./ha: r19 150, r20 50, r21 5)
60%: Herbicidal action 28 DAT against Alopecurus myosuroides (resistant biotype) (15 g a.i./ha) | Herbicidal action 28 DAT against Alopecurus myosuroides (sensitive biotype) (15 g a.i./ha) | Herbicidal action 28 DAT against Phalaris minor (15 g a.i./ha) | Herbicidal action against Alopecurus myosuroides (resistant biotype) (28 DAT, g a.i./ha: r165 15, r166 90, r167 30)
0%: Herbicidal action 28 DAT against Lolium rigidum (resistant biotype) (1.67 g a.i./ha) | Herbicidal action 28 DAT against Lolium rigidum (sensitive biotype) (1.67 g a.i./ha) | Herbicidal action 28 DAT against Alopecurus myosuroides (sensitive biotype) (5 g a.i./ha) | Herbicidal action 28 DAT against Bromus sterilis (5 g a.i./ha) | Herbicidal action 28 DAT against Euphorbia heterophylla (5 g a.i./ha) | Herbicidal action 28 DAT against Galium aparine (5 g a.i./ha) | Herbicidal action 28 DAT against Hordeum murinum (5 g a.i./ha) | Herbicidal action 28 DAT against Ipomoea purpurea (5 g a.i./ha) | Herbicidal action 28 DAT against Lolium rigidum (resistant biotype) (5 g a.i./ha) | Herbicidal action 28 DAT against Lolium rigidum (sensitive biotype) (5 g a.i./ha) | Herbicidal action 28 DAT against Phalaris minor (5 g a.i./ha) | Herbicidal action 28 DAT against Polygonum convolvulus (5 g a.i./ha) | Herbicidal action 28 DAT against Stellaria media (5 g a.i./ha) | Herbicidal action 28 DAT against Veronica hederifolia (5 g a.i./ha) | Herbicidal action 28 DAT against Viola tricolor (5 g a.i./ha) | Herbicidal action 28 DAT against Ipomoea purpurea (15 g a.i./ha) | Herbicidal action 28 DAT against Lolium rigidum (resistant biotype) (15 g a.i./ha) | Herbicidal action 28 DAT against Lolium rigidum (sensitive biotype) (15 g a.i./ha) | Herbicidal action against Lolium rigidum (resistant bio type) (28 DAT, g a.i./ha: r220 15, r221 5, r222 270, r223 90) | Herbicidal action against Veronica hederifolia (28 DAT, g a.i./ha: r294 5, r295 90) | Herbicidal action 28 DAT [%] against Abutilon theophrasti (post-emergence, single active compound (Glyphosate series), g a.i./ha: r796 450, r798 5) | Herbicidal action 28 DAT [%] against Bromus sterilis (post-emergence, single active compound, g a.i./ha: r172 5, r173 1.67, r174 450) | Herbicidal action 28 DAT [%] against Galium aparine (post-emergence, single active compound, g a.i./ha: r183 5, r184 50) | Herbicidal action 28 DAT [%] against Lolium rigidum (sensitive biotype) (post-emergence, single active compound, g a.i./ha: r214 15, r215 150, r216 50) | Herbicidal action 28 DAT [%] against Lolium rigidum (resistant biotype) (post-emergence, single active compound, g a.i./ha: r224 15, r225 5, r226 150, r227 50) | Herbicidal action 28 DAT [%] against Veronica hederifolia (post-emergence, single active compound, g a.i./ha: r292 5, r293 150)
50%: Herbicidal action 28 DAT against Avena fatua (5 g a.i./ha) | Herbicidal action 28 DAT against Polygonum convulvulus (5 g a.i./ha) | Herbicidal action 28 DAT against Lamium purpureum (15 g a.i./ha) | Herbicidal action against Polygonum convulvulus (28 DAT, g a.i./ha: r137 270, r138 90, r139 30, r140 5) | Herbicidal action 28 DAT against Galium aparine (45 g a.i./ha)
35%: Herbicidal action 28 DAT against Euphorbia heterophylla (45 g a.i./ha)
93%: Herbicidal action 28 DAT against Polygonum convulvulus (15 g a.i./ha)
40%: Herbicidal action against Eleusine indica (28 DAT, g a.i./ha: r62 270, r63 30, r64 15, r65 5) | Herbicidal action 28 DAT [%] against Papaverrhoeas (post-emergence, single active compound, g a.i./ha: r235 5, r236 450, r237 50)
10%: Herbicidal action 28 DAT against Euphorbia heterophylla (15 g a.i./ha) | Herbicidal action 28 DAT against Ipomoea purpurea (45 g a.i./ha) | Herbicidal action 28 DAT [%] against Setaria viridis (post-emergence, single active compound (Glyphosate series), g a.i./ha: r786 450, r788 1.67)
80%: Herbicidal action 28 DAT against Raphanus raphanistrum (5 g a.i./ha) | Herbicidal action 28 DAT [%] against Raphanus raphanistrum (post-emergence, single active compound, g a.i./ha: r282 5, r283 150, r284 50)

C[C@]1(C(=O)N[C@H]2CO[C@@H](C(=O)NS(C)(=O)=O)C2)CC(c2cc(F)cc(F)c2)=NO1 (relative stereo) [Compound A2, (5R)-3-(3,5-difluorophenyl)-5-methyl-N-[rel-(3R,5R)-5-(methylsulfonylcarbamoyl)tetrahydrofuran-3-yl]-4H-isoxazole-5-carboxamide]
75%: Herbicidal action 28 DAT against Pharbitis purpurea (5 g a.i./ha) | Herbicidal action against Pharbitis purpurea ((Z32) 28 DAT, g a.i./ha: r408 270, r409 90, r410 30, r411 5)
20%: Herbicidal action 28 DAT against Echinochloa crus-galli (5 g a.i./ha) | Herbicidal action 28 DAT against Kochia scoparia (5 g a.i./ha) | Herbicidal action 28 DAT against Kochia scoparia (15 g a.i./ha) | Herbicidal action against Abutilon theophrasti ((Z32) 28 DAT, g a.i./ha: r315 270, r316 90, r317 30, r318 15) | Herbicidal action against Echinochloa crus-galli ((Z32) 28 DAT, g a.i./ha: r372 270, r373 90, r374 30, r375 5) | Herbicidal action against Kochia scoparia ((Z32) 28 DAT, g a.i./ha: r396 270, r397 90, r398 15, r399 5) | Herbicidal action 28 DAT [%] against Kochia scoparia (post-emergence, single active compound (A2 series), g a.i./ha: r347 50, r349 5)
80%: Herbicidal action 28 DAT against Polygonum convolvulus (5 g a.i./ha) | Herbicidal action against Polygonum convolvulus ((Z32) 28 DAT, g a.i./ha: r419 90, r420 30, r421 5) | Herbicidal action 28 DAT [%] against Polygonum convulvulus (post-emergence, single active compound (A2 series), g a.i./ha: r357 50, r359 5)
65%: Herbicidal action 28 DAT against Amaranthus palmeri (res.) (15 g a.i./ha)
0%: Herbicidal action 28 DAT against Brachiaria platyphylla (1.7 g a.i./ha) | Herbicidal action 28 DAT against Digitaria sanguinalis (1.7 g a.i./ha) | Herbicidal action 28 DAT against Sorghum halepense (1.7 g a.i./ha) | Herbicidal action 28 DAT against Digitaria sanguinalis (5 g a.i./ha) | Herbicidal action 28 DAT against Sorghum halepense (5 g a.i./ha) | Herbicidal action 28 DAT [%] against Digitaria sanguinalis (post-emergence, single active compound (A2 series), g a.i./ha: r326 150, r327 50, r328 5, r329 1.7)
45%: Herbicidal action 28 DAT against Eleusine indica (15 g a.i./ha)
35%: Herbicidal action 28 DAT against Eleusine indica (5 g a.i./ha) | Herbicidal action 28 DAT [%] against Eleusine indica (post-emergence, single active compound (A2 series), g a.i./ha: r337 150, r339 5)
30%: Herbicidal action 28 DAT against Eleusine indica (1.7 g a.i./ha)
10%: Herbicidal action 28 DAT against Echinochloa crus-galli (1.7 g a.i./ha) | Herbicidal action against Bidens pilosa ((Z32) 28 DAT, g a.i./ha: r337 270, r338 90, r339 30, r340 15) | Herbicidal action against Digitaria sanguinalis ((Z32) 28 DAT, g a.i./ha: r361 270, r362 90, r363 30, r364 15)
15%: Herbicidal action 28 DAT against Amaranthus palmeri (res.) (5 g a.i./ha) | Herbicidal action 28 DAT against Sorghum halepense (15 g a.i./ha)

C=C[C@]1(C(=O)N[C@H]2CO[C@@H](C(=O)NOC)C2)CC(c2cc(C)cc(F)c2)=NO1 (relative stereo) [Compound A3, (5S)-3-(3-fluoro-5-methylphenyl)-N-[rel-(3R,5R)-5-(methoxycarbamoyl)tetrahydrofuran-3-yl]-5-vinyl-4H-isoxazole-5-carboxamide]
70%: Herbicidal action against Eleusine indica (Z61 28 DAT, g a.i./ha: r487 270, r488 5) | Herbicidal action 28 DAT [%] against Pharbitis purpurea (post-emergence, single active compound, g a.i./ha: r396 50, r398 5)
10%: Herbicidal action 28 DAT against Amaranthus palmeri (res.) (15 g a.i./ha) | Herbicidal action against Abutilon theophrasti (Z61 28 DAT, g a.i./ha: r459 30, r460 15) | Herbicidal action against Amaranthus palmeri (res.) (Z61 28 DAT, g a.i./ha: r467 90, r468 30, r469 15, r470 5) | Herbicidal action against Brachiaria platyphylla (Z61 28 DAT, g a.i./ha: r479 30, r480 1.7)
20%: Herbicidal action 28 DAT against Amaranthus palmeri (res.) (45 g a.i./ha) | Herbicidal action 28 DAT against Kochia scoparia (45 g a.i./ha)
